From patent US20260232767A1, “INTERLEUKIN-23 RECEPTOR ANTAGONIST PEPTIDES FOR USE IN THE TREATMENT OF PSORIASIS” (Janssen Pharmaceutica NV, priority 2023, published 2026)
Read-outs that look alike come from different tables or passages of the source.

Experiment: Plasma concentrations (PK), Example 1
Assay type: in vivo, human
Settings: for level at 672 h / level at 1344 h / level at 2016 h / level at 2688 h: 100 mg; for level at 672 h: Week 4; for level at 1344 h: Week 8
Protocol: For QD dosing, peak concentration was defined as any PK sample taken between 0.25 to <6 hours after the last morning dose and trough concentration was at least 20 hours after the last morning dose. For BID dosing, peak concentration was defined as any PK sample taken between 0.25 to <4 hours after the last dose and trough concentration was at least 8 hours after the last dose.

[1] = human, plasma, oral, 100 mg BID, Peak, read-out: Plasma concentration, Mean
[2] = human, plasma, oral, 100 mg BID, Peak, read-out: Plasma concentration, Median
[3] = human, plasma, oral, 100 mg QD, Intermediate, read-out: Plasma concentration, Geometric Mean
[4] = human, plasma, oral, 100 mg QD, Peak, read-out: Plasma concentration, Geometric Mean
[5] = human, plasma, oral, 100 mg QD, Peak, read-out: Plasma concentration, Mean
[6] = human, plasma, oral, 100 mg QD, Peak, read-out: Plasma concentration, Median

## CC(=O)NCCCC[C@@H]1NC(=O)[C@H](Cc2c[nH]c3c(C)cccc23)NC(=O)[C@H]([C@@H](C)O)NC(=O)[C@H](CC(N)=O)NC(=O)[C@@H](NC(C)=O)C(C)(C)SSC(C)(C)[C@@H](C(=O)N[C@@H](Cc2ccc(OCCN)cc2)C(=O)N[C@@H](Cc2ccc3ccccc3c2)C(=O)NC2(C(=O)N[C@@H](CCC(=O)O)C(=O)N[C@@H](CC(N)=O)C(=O)N[C@@H](Cc3cccnc3)C(=O)N(C)CC(N)=O)CCOCC2)NC1=O [IL-23 receptor antagonist peptide, Ac-[Pen]*-N-T-[W(7-Me)]-[Lys(Ac)]-[Pen]*-Phe[4-(2-aminoethoxy)]-[2-Nal]-[THP]-E-N-[3-Pal]-Sarc-NH2 (*[Pen]-[Pen]* formdisulfidebond)]
[1]
  level at 672 h: 2.05 ng/mL
  level at 1344 h: 3.55 ng/mL
[2]
  level at 672 h: 1.84 ng/mL
  level at 1344 h: 1.44 ng/mL
human, plasma, oral, 100 mg BID, Intermediate, read-out: Plasma concentration, Geometric Mean
  level at 1344 h: 0.675 ng/mL
human, plasma, oral, 100 mg BID, Intermediate, read-out: Plasma concentration, Mean
  level at 1344 h: 1.04 ng/mL
human, plasma, oral, 100 mg BID, Intermediate, read-out: Plasma concentration, Median
  level at 1344 h: 0.84 ng/mL
human, plasma, oral, 100 mg BID, Peak, read-out: Plasma concentration, Geometric Mean
  level at 1344 h: 1.86 ng/mL
human, plasma, oral, 100 mg BID, Trough, read-out: Plasma concentration, Geometric Mean
  level at 1344 h: 0.664 ng/mL
human, plasma, oral, 100 mg BID, Trough, read-out: Plasma concentration, Mean
  level at 1344 h: 0.961 ng/mL
human, plasma, oral, 100 mg BID, Trough, read-out: Plasma concentration, Median
  level at 1344 h: 0.744 ng/mL
human, plasma, oral, 100 mg BID, Week 12, Trough, read-out: Plasma concentration, Mean
  level at 2016 h: 1.1 ng/mL
[3]
  level at 672 h: 0.683 ng/mL
  level at 1344 h: 0.235 ng/mL
[4]
  level at 672 h: 0.968 ng/mL
  level at 1344 h: 0.892 ng/mL
[5]
  level at 672 h: 1.31 ng/mL
  level at 1344 h: 1.15 ng/mL
[6]
  level at 672 h: 1.34 ng/mL
  level at 1344 h: 0.873 ng/mL
human, plasma, oral, 100 mg QD, Intermediate, read-out: Plasma concentration, Mean
  level at 1344 h: 0.235 ng/mL
human, plasma, oral, 100 mg QD, Intermediate, read-out: Plasma concentration, Median
  level at 1344 h: 0.235 ng/mL
human, plasma, oral, 100 mg QD, Trough, read-out: Plasma concentration, Geometric Mean
  level at 1344 h: 0.175 ng/mL
human, plasma, oral, 100 mg QD, Trough, read-out: Plasma concentration, Mean
  level at 1344 h: 0.229 ng/mL
human, plasma, oral, 100 mg QD, Trough, read-out: Plasma concentration, Median
  level at 1344 h: 0.149 ng/mL
human, plasma, oral, 100 mg QD, Week 12, Trough, read-out: Plasma concentration, Mean
  level at 2016 h: 0.355 ng/mL
human, plasma, oral, weight >90 kg, 100 mg BID, Week 12, Intermediate, read-out: Plasma concentration, Geometric Mean
  level at 2016 h: 0.601 ng/mL
human, plasma, oral, weight >90 kg, 100 mg BID, Week 12, Peak, read-out: Plasma concentration, Geometric Mean
  level at 2016 h: 2.13 ng/mL
human, plasma, oral, weight >90 kg, 100 mg BID, Week 12, Peak, read-out: Plasma concentration, Mean
  level at 2016 h: 6.41 ng/mL
human, plasma, oral, weight >90 kg, 100 mg BID, Week 12, Peak, read-out: Plasma concentration, Median
  level at 2016 h: 1.29 ng/mL
human, plasma, oral, weight >90 kg, 100 mg BID, Week 16, Intermediate, read-out: Plasma concentration, Mean
  level at 2688 h: 0.724 ng/mL
human, plasma, oral, weight >90 kg, 100 mg BID, Week 16, Trough, read-out: Plasma concentration, Geometric Mean
  level at 2688 h: 0.522 ng/mL
human, plasma, oral, weight >90 kg, 100 mg BID, Week 16, Trough, read-out: Plasma concentration, Mean
  level at 2688 h: 0.755 ng/mL
human, plasma, oral, weight >90 kg, 100 mg BID, Week 16, Trough, read-out: Plasma concentration, Median
  level at 2688 h: 0.428 ng/mL
human, plasma, oral, weight >90 kg, 100 mg QD, Week 12, Intermediate, read-out: Plasma concentration, Geometric Mean
  level at 2016 h: 0.75 ng/mL
human, plasma, oral, weight >90 kg, 100 mg QD, Week 12, Peak, read-out: Plasma concentration, Geometric Mean
  level at 2016 h: 1.04 ng/mL
human, plasma, oral, weight >90 kg, 100 mg QD, Week 12, Peak, read-out: Plasma concentration, Mean
  level at 2016 h: 1.04 ng/mL
human, plasma, oral, weight >90 kg, 100 mg QD, Week 12, Peak, read-out: Plasma concentration, Median
  level at 2016 h: 1.09 ng/mL
human, plasma, oral, weight >90 kg, 100 mg QD, Week 16, Intermediate, read-out: Plasma concentration, Mean
  level at 2688 h: 0.378 ng/mL
human, plasma, oral, weight >90 kg, 100 mg QD, Week 16, Trough, read-out: Plasma concentration, Geometric Mean
  level at 2688 h: 0.102 ng/mL
human, plasma, oral, weight >90 kg, 100 mg QD, Week 16, Trough, read-out: Plasma concentration, Mean
  level at 2688 h: 0.11 ng/mL
human, plasma, oral, weight >90 kg, 100 mg QD, Week 16, Trough, read-out: Plasma concentration, Median
  level at 2688 h: 0.129 ng/mL
human, plasma, oral, read-out: Terminal elimination half-life
  half-life: 9 to 12 h
Oral daily dosing
  Attainment of steady state conditions: ≤ 1 Week
